Assay results from patent US12250946B2, “Antifungal composition having excellent antifungal activity even at low temperature” (Korea University Research and Business Foundation, priority 2020, dated 2025).

Tested on: Candida albicans biofilms
Assay: Biofilm inhibitory activity by confocal laser scanning microscopy (SYTO 9 / PI staining)
Format: cell-based
Settings: 5 minutes treatment, 1.2 mM each component
Procedure: Candida albicans biofilms were formed on a stainless-steel coupon. Specifically, the […] were immersed in 90% (v/v) ethanol for 30 minutes for decontamination of stainless-steel coupons (1.5×1.0 cm2) and washed with sterile distilled water. Then, stainless-steel coupons were placed in a 12-well tissue culture plate containing 4.95 mL of SDB enrichment medium, and 50 uL of the mixed suspensions of albicans were dispensed and cultured at 30° C. for 48 hours to form Candida albicans biofilms. After forming the biofilm on each coupon, weakly attached cells, not the biofilm, were separated using 0.85% sterile physiological saline.
The antifungal activity of the antimicrobial mixture of the present disclosure was confirmed through confocal laser scanning microscopy analysis. For the biofilms of Candida species treated with each antimicrobial mixture, intact cells were stained with green fluorescent SYTO®9 (S-34854, Molecular Probes™, Thermo Fisher Scientific Inc., Pittsburgh, PA, USA; final concentration: 6.7 μM; excitation: 488 nm, emission: 498/501 nm), and damaged cells were detected by staining with red fluorescent propidium iodide (PI; P3566, Molecular Probes™; final concentration: 15 μM; excitation: 555 nm, emission: 617 nm). […]

Structure (SMILES): CC(O)CO (centres unmarked) [compound 2, propylene glycol]
- damage to the fungal cell membrane in the biofilms (SYTO 9 green / PI red fluorescence) (5° C., FIGS. 4A-4F): did not show significant damage to the fungal cell membrane
- damage to the fungal cell membrane in the biofilms (SYTO 9 green / PI red fluorescence) (22° C., FIGS. 5A-5F): did not show significant damage to the fungal cell membrane
